From patent publication US20050019765A1, “Methods for treating disorders of the nervous and reproductive systems” (priority 2001, published 2005)

System: murine sperm
Experiment: chlortetracycline assay for capacitation of murine sperm in vitro
Type: cell-based
Description: ABCA1 generates HDL by transferring cholesterol onto apoprotein-A1 (apoA1) in a process known as cholesterol efflux, which is also an essential component of male fertility. Sperm are made in the testes and released into the epididymis, where they await ejaculation into the female reproductive tract. Although differentiated, epididymal sperm are not capable of fertilization and must first complete their maturation in the female reproductive tract. This maturation process is known as capacitation and is known to require efflux of cholesterol from the sperm plasma membrane. How this occurs at the molecular level is not well understood. The present invention relies in part on the discovery that ABCA1 is highly expressed in the testes (being present in Sertoli and Leydig cells as well as in differentiating spermatids). […] In accordance with the present invention, ABCA1 is also present in epididymal sperm where it can act to transport cholesterol during capacitation. In vivo, follicular HDL is an endogenous cholesterol acceptor for capacitating sperm, and HDL can stimulate capacitation in vitro. In accordance with the present invention, because cholesterol efflux through ABCA1 is dependent upon apoA1 the ability of apoA1 to stimulate capacitation of murine sperm in vitro was tested using a chlortetracycline assay.

## de-lipidated apoA1: apoprotein-A1, the acceptor onto which ABCA1 transfers cholesterol in cholesterol efflux
  ability to stimulate capacitation of murine sperm: capacitates sperm in a dose-dependent manner
